Test results reported in the METLIN SMRT retention time set (Domingo-Almenara et al. 2019).

Assay: gradient 5% acetonitrile 3 min, to 50% in 2 min, to 85% in 15 min, held 3 min, 100 µL/min
Conditions: column: Zorbax Extend-C18 2.1 x 50 mm; eluents: water / acetonitrile, 0.1% formic acid
How it was run: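 Pure standards were run in mixtures of ~100 molecules by HPLC coupled to a quadrupole time-of-flight mass spectrometer. The column was a Zorbax Extend-C18 (2.1 × 50 mm, 1.8 μm) at 100 μL/min, with water and acetonitrile each containing 0.1% formic acid, in positive and negative ionization mode. Dead and dwell volumes were 40 μL and 900 μL. Retention time was taken from computationally picked adduct peaks, each manually inspected, with data collected over 3 months.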

| SMILES | RP-LC retention time [s] |
| --- | --- |
| CCc1nc2cc(-c3noc(C4CC(=O)N(c5ccc(C)cc5)C4)n3)ccc2o1 (configuration not stated) | 987 |
| COC(=O)c1ccccc1NC(=O)C1(c2cccs2)CCOCC1 | 1030 |
| CC(C)C(NC(=O)c1ccc(CN2C(=O)C3CCCN3C(=O)c3ccccc32)cc1)c1cccs1 (configuration not stated) | 857 |
| Cc1cc2nn(CC(=O)N3CCCc4ccccc43)c(=O)n2c(Nc2ccc(F)cc2)n1 | 1060 |
| CC(C)CN1CCN(S(=O)(=O)c2ccc(-c3nnc(C4CCC4)o3)o2)CC1 | 610 |
| CC(=O)Nc1nc(-c2ccc3c(c2)NC(=O)C(C)O3)cs1 (configuration not stated) | 685 |
| CCc1ccc(-c2csc(Nc3ccc(S(=O)(=O)Nc4nc(C)cc(C)n4)cc3)n2)cc1 | 1040 |
| CCOc1ccccc1NC(=O)Cn1cccc(-c2nc(-c3ccc(Br)cc3)no2)c1=O | 1100 |
| CS(=O)(=O)Nc1ccc(-c2noc(-c3cncc(Br)c3)n2)cc1 | 877 |
| COC(=O)c1cccc(-c2nc(-c3cn(Cc4ccccc4)nn3)no2)c1 | 964 |
| O=C(NCC1CCN(Cc2ccccc2F)CC1)C1CCN(c2ccc3nncn3n2)CC1 | 584 |
| CCOc1ccccc1-c1noc(Cn2c(=O)n(-c3ccc(Cl)cc3)c(=O)c3sccc32)n1 | 1030 |
| O=C(Nc1ccc2c(c1)OCCO2)N1CCCC1c1nc(CCOCC2CCCC2)no1 (configuration not stated) | 896 |
| O=C(CN1N=C(c2ccccc2)c2ccccc2S1(=O)=O)Nc1cccc(Cl)c1 | 1020 |
| Cc1ccc(-c2ccc3nn(Cc4nc(-c5ccc(F)c(Br)c5)no4)c(=O)n3n2)cc1 | 1090 |
| COc1ccc(C)cc1NC(=O)N1CCC(OC2CCN(S(C)(=O)=O)CC2)CC1 | 810 |
| Cc1cccc(-c2ncccc2CNS(=O)(=O)Cc2ccccc2F)c1 | 705 |
| Cc1cc(C)cc(N2CCC(NC(=O)c3sccc3C)C2=O)c1 (configuration not stated) | 916 |
| CCCn1c(CCNC(=O)c2ccc(C)c(C)c2)nc2cccnc21 | 705 |

| SMILES | RP-LC retention time [s] |
| --- | --- |
| Cc1cccc2nnc(N3CCCC(C(=O)N4CCN(C5CCCCC5)CC4)C3)n12 (configuration not stated) | 570 |
| CCc1cccc(NS(=O)(=O)c2cc3n(c2)CCCN(CC)C3=O)c1 | 756 |
| CSc1ccc(-c2nc3cccc(C)n3c2Nc2ccc3c(c2)OCCO3)cc1 | 719 |
| O=C(Cc1ccc(F)cc1)N1CCCC1c1nc(-c2ccc(F)cc2)no1 (configuration not stated) | 1010 |
| CCOC(=O)C1CCCN(C(=O)c2ccc(SCCN3CCOCC3)nc2)C1 (configuration not stated) | 616 |
| O=C(CN1C(=O)CCCc2cc(S(=O)(=O)N3CCCCCC3)ccc21)Nc1cccc(F)c1 | 988 |
| O=C(CC1CCN(C(=O)NC2CCCCC2)CC1)N1CCN(c2ccccn2)CC1 | 598 |
| Cc1ccc(S(=O)(=O)c2cnc(N3CCc4ccccc4C3)nc2N)cc1C | 1150 |
| CC1Cc2ccccc2N1S(=O)(=O)CCCOc1ccc2c(c1)OCO2 (configuration not stated) | 1020 |
| CCOC(=O)c1c(C)[nH]c(C(=O)N2CCCC(C(=O)NCc3ccccc3C)C2)c1C (configuration not stated) | 814 |
| CCCCOc1ccc(-c2cc3c4nnc(CCC(=O)N5CCN(C)CC5)n4ccn3n2)cc1 | 686 |
| CC(C)c1ccc(S(=O)(=O)N2CCc3nc(-c4ccccc4)ncc3C2)cc1 | 1230 |
| Cc1ccc(-n2c(=O)c3c(cc(C)n3C)n(CC(=O)N3CCc4ccccc43)c2=O)cc1 | 928 |
| Cc1csc(-c2cc(S(=O)(=O)NC(C)(C)C)c(C)n2C)n1 | 914 |
| O=C1CC(c2noc(CCc3ccccc3)n2)CN1c1ccccc1 (configuration not stated) | 956 |
| Cc1ccc(NC(=O)CC2COc3ccccc3NC2=O)cc1F (configuration not stated) | 769 |
| CCC1=NS(=O)(=O)c2cccnc2N1c1ccc(Br)c(C)c1 | 986 |
| CN(C)C1(CC2CC2)CCN(C(=O)C2CCCC2)CC1 | 604 |

Now from value to molecule:

| RP-LC retention time [s] | SMILES |
| --- | --- |
| 596 | CCNC(=O)c1cc(C)on1 |
| 652 | COc1ccc([C@@H]2CC(=O)c3c(O)cc(O[C@@H]4O[C@H](CO)[C@@H](O)[C@H](O)[C@H]4OC4O[C@@H](C)[C@H](O)[C@@H](O)[C@H]4O)cc3O2)cc1O (some centres not stated) |
| 1020 | Cn1cc2c(n1)c(=O)n(Cc1ccc(F)cc1)c1nn(Cc3ccccc3F)c(=O)n21 |
| 618 | CCCN1CCN(C(=O)C(CC)n2c3ccccc3c3cnn(C)c(=O)c32)CC1 (configuration not stated) |
| 1080 | CCOc1ccc(-c2noc(C3CC(=O)N(c4ccc(C)cc4)C3)n2)cc1 (configuration not stated) |
| 631 | COc1ccc(NC(=O)CN2CCc3[nH]c4c(C)cc(F)cc4c(=O)c3C2)c(OC)c1 |
| 722 | O=C(Nc1ccccn1)c1ccc(S(=O)(=O)NC2CCCC2)cc1 |
| 1070 | O=c1c2sccc2n(Cc2nc(-c3cccc(C(F)(F)F)c3)no2)c(=O)n1-c1ccc(F)cc1 |
| 896 | COc1ccc(NS(=O)(=O)c2cn(CC(C)C)c3ncccc23)cc1F |
| 753 | O=C(Cn1nc2nc(Nc3ccc(F)cc3)ccn2c1=O)NCc1ccc(F)cc1Cl |
| 772 | COC(=O)c1ncn2c1C(=O)N(Cc1ccc(F)cc1)C(C)(C(=O)NCc1ccc(C)cc1)C2 (configuration not stated) |
| 664 | O=C(Nc1ccc2c(N3CCCCC3)ncnc2c1)c1cncc(Br)c1 |
| 756 | CCOC(=O)c1ccccc1NC(=O)N(Cc1cccs1)C1CCN(CC)CC1 |
| 858 | COc1ccc(CCc2nc(Cn3c(C)nc4ccccc4c3=O)no2)cc1 |
| 1080 | Cc1ccc(-c2nc(C(=O)N3CCN(c4ccccc4)CC3)cs2)n1C |
| 682 | CCn1cc(CC(=O)NCc2ccc(C)o2)c2cccnc21 |
| 630 | CCCN1CCN(C(=O)c2ccc(S(=O)(=O)c3ccccc3)s2)CC1 |
| 761 | Cn1cnc(S(=O)(=O)N2CCC(c3noc(COCc4ccccc4)n3)C2)c1 (configuration not stated) |
| 662 | O=C(Nc1cccc(Cl)c1F)N1CC(F)(F)C[C@H]1CN1CCCC1 |
| 1240 | O=C(Cc1cccc(Cl)c1)Nc1ccsc1-c1nnc(C2CC2)o1 |
| 726 | Cc1noc(C2CN(C(=O)Nc3cc(F)cc(F)c3)CC23CCOCC3)n1 (configuration not stated) |
| 701 | Cc1cc(=O)n(CC(=O)Nc2cccc(Cl)c2)c(N2CCCCC2)n1 |
| 736 | O=c1n(Cc2ccc3c(c2)OCO3)nc2c(S(=O)(=O)N3CCOCC3)cccn12 |
| 832 | CCn1ccc2cc(S(=O)(=O)N3CCCN(C(=O)NCc4ccco4)CC3)ccc21 |
| 778 | CCOC(=O)c1sc(NC(=O)Cn2c(=O)oc3ccccc32)nc1C |

| RP-LC retention time [s] | SMILES |
| --- | --- |
| 1140 | CCOC(=O)c1c(C(C)(C)C)oc2ccc(OCC#N)cc12 |
| 1020 | Cc1ccc(-c2noc(CN3N=NC4C(=O)N(c5cccc(F)c5)C(=O)C43)n2)cc1 (configuration not stated) |
| 624 | CCCNC(=O)N1CCCCCC1CN1CCC(C)CC1 (configuration not stated) |
| 930 | O=C(NCCc1ccco1)c1ccc2nc(CCc3ccccc3)oc2c1 |
| 650 | Cc1ccn2cc(C(=O)N3CCN(c4ccc(F)cc4)CC3)nc2c1 |
| 1040 | CCN1C(=O)c2cc(S(=O)(=O)Nc3cc(F)cc(F)c3)ccc2Oc2cccnc21 |
| 683 | COc1ccc(CNC(=O)c2ccc(CN3CC(=O)N4CCCCC4C3=O)cc2)cc1 (configuration not stated) |
| 609 | CC(=O)Nc1cccc(NC(C)=O)n1 |
| 605 | CC1CN=C2C=C(N3CCN(C(=O)NCc4cccc(F)c4)CC3)N=CN21 (configuration not stated) |
| 615 | O=C(NCC(=O)N1CCN(c2ncccn2)CC1)c1c[nH]c2ccccc12 |
| 622 | Cn1ncc2c3ccccc3n(CC(=O)N3CCN(Cc4ccc5c(c4)OCO5)CC3)c2c1=O |
| 766 | CCc1ccccc1NC(=O)N1CCC2(CC1)NC(=O)c1cccc(Cl)c1N2 |
| 612 | COc1ccc(N2C(=O)CCS2(=O)=O)cc1S(=O)(=O)N1CCC(C(N)=O)CC1 |
| 726 | CCn1ccc2ccn(CC(=O)NCc3ccc4c(c3)OCO4)c(=O)c21 |
| 711 | Cc1nc(-c2cnccn2)n(CC(=O)Nc2cccc(C#N)c2)c(=O)c1C |
| 750 | CC1(C)COCN1S(=O)(=O)c1ccc(C(=O)Nc2nnc(-c3cccs3)o2)cc1 |
| 831 | CC(C)(C)c1nnc(NC(=O)C2CC(=O)N(CCc3c[nH]c4ccc(Cl)cc34)C2)s1 (configuration not stated) |
| 759 | CCCCN(C)C(=O)c1ccc2c(c1)N(CCC)C(=O)C1CCC(=O)N21 (configuration not stated) |
| 587 | Cc1cc2n(n1)CCCN2Cc1ccc(C(=O)NCCCN2CCCC2=O)cc1 |
| 566 | COC(=O)CNC(=O)N(C)Cc1nc2cc(C(=O)N3CCCC3)ccc2n1C |
| 978 | COC(=O)c1cc(S(=O)(=O)N2CCCC2C(=O)Nc2ccc(F)c(Cl)c2)cn1C (configuration not stated) |
| 854 | CCOC(=O)c1ccc(NC(=O)Cn2c(=O)n(-c3ccccc3)c(=O)c3c2cc(C)n3C)cc1 |
| 777 | Cn1ncc(NC(=O)c2cccc(Cl)c2)c(N2CCOCC2)c1=O |
| 946 | CCCCn1cc(S(=O)(=O)NCc2ccccc2)c2cccnc21 |
| 1170 | CC(C)Oc1ccc(-c2noc(Cn3c(=O)n(Cc4ccccc4)c(=O)c4sccc43)n2)cc1 |
